“Also recorded” adds a separate entry of the source. One block for each molecule: values may come before it.
Tests used:
Aβ = conditions: cited from earlier work
Source text: (§1) Single‐site binding events are the classical paradigm for a drug–enzyme complex. Because of the low affinity and the lack of deep binding pockets, this class of inhibitors is not very effective for amyloids (Figure 7, top). Nevertheless, it has been shown that multi‐ligand interactions of tramisprosate with monomeric Aβ42 can prevent amyloid oligo ...

Aβ42 = conditions: multi-ligand interactions with monomeric Aβ42; cited from earlier work
Source text: as §1

[1] = Morphology by TEM, DIC and fluorescence microscopy; format: physicochemical; conditions: DIC experiments; 10 mM sodium phosphate buffer, pH 7.4 (1% v/v HFIP)
Method: Figure 1 R3‐GI self‐assembly. […] On the right, the binding curve is shown. The estimated app. […] Data are means (±SEM) from three binding curves. […] Scale bar: 10 μm.
(§2) Peptide synthesis and sample preparation for NMR
(§3) The other peptide samples were
(§4) Sample preparation for DLS, TEM and DIC
(§5) (containing 1% v/v HFIP) without filtration. The Fluor-647-Aβ40 was ordered from AnaSpec, […]
(§6) for 20 min before capturing images. […]
(§7) microscope, as described elsewhere. An oil immersion objective (Apo-TIRF 100x Oil/NA 1.49, Nikon) was used for all measurements.
(§8) Picoquant) was used for excitation. Fluorescence emission was detected using an avalanche […]
(§9) measurements were carried out at 22 °C.
(§10) (measured before the back aperture of the objective). […]
(§11) temperature within 2-5 min following solution preparation. The determined app. Kd is means (±SD) from three binding curves.
Cross-linking studies were performed as previously described. […]
(§12) Effects of peptides on amyloidogenesis of Aβ40 were determined using a previously established ThT binding assay as described. […] ThT binding was determined immediately by measuring fluorescence emission at 486 nm following excitation at 450 nm using a 2030 Multilabel Reader VictorX3 (PerkinElmer Life Sciences). […]
(§13) PA 19440, USA; Formvar/Carbon 300 mesh copper coated). Samples were measured immediately employing an EM 10 CR (Zeiss, Germany). […]

[2] = Solution-state NMR (NOESY, chemical shifts) structural characterization; format: physicochemical
Method: as §2, §3, §4, §5, §6, §7, §8, §9, §10
quantify the signal-to-noise ratio. For the R3-GI peptide, the signal to noise ratio of the isolated Thr-CH3 peak amounts to […]. For the reference peptide, the signal to noise of the single Thr-CH3 peak corresponds to 216.82. The ratio of concentrations amounts to a factor of 20.83. Otherwise, 1D-1H spectra were recorded under identical conditions. […]
images in which we determined the partitioning coefficient of the R3-GI solution (Fig. S3). […]
correlation time which in turn would result in higher NOESY cross peak intensities. A) H- H NOESY spectrum recorded for a 500 μM solution of R3-GI, using a salt concentration of 2.5 mM (black) and 50 mM NaCl (red), respectively. […]
recorded for a 500 μM solution of R3-GI, setting the pH to 5.98 (blue), 6.87 (green), 7.06 (red) and 7.23 (black). […]

Aβ40 [3] = assay: Solubility of 15N-labeled Aβ40 in presence of ISM (NMR titration); format: binding; conditions: for Aβ40 signal at tenfold excess of ISM, in words: molar ratio Aβ/ISM 1:10; for Effect on Aβ40 solubility upon titration, in words: titration with / incubation of monomeric Aβ40
Method: (§14) Figure 5 ISM–substrate interactions. A) ^15N‐filtered 1D‐^1H spectra of a 20 μM sample of ^15N‐labeled Aβ40 in the absence (black) and presence of the ISM inhibitor K3‐L3‐K3‐GI (top), and the non‐inhibitor G3‐GI (bottom). […] At this molar excess, the intensities of Aβ40 are reduced only to ca. 28 % when G3‐GI is titrated to Aβ40. […] At a molar ratio of 1:10 for Aβ/inhibitor, the spectrum is dominated by the resonances of the inhibitor. […] B) 2D ^1H‐^15N HSQCs of Aβ40 incubated with K3‐L3‐K3‐GI (red) at a molar ratio of 1:1. The Aβ40 reference spectrum is represented in black. […] C) Comparison of the DIC and fluorescence microscopy images of R3‐GI/Aβ40, K3‐L3‐K3‐GI/Aβ40, and G3‐GI/Aβ40. […] Scale: 10 μm.

Aβ40 [4] = assay: Co-localization of Fluos-labeled ISMs with Fluor-647-Aβ40 (DIC and fluorescence microscopy); format: binding; conditions: incubated at room temperature for 20 min
Method: as §14, §2, §3, §4
(containing 1% v/v HFIP) without filtration. The Fluor-647-Aβ40 was ordered from AnaSpec,
for 20 min before capturing images.
microscope, as described elsewhere. An oil immersion objective (Apo-TIRF 100x Oil/NA
1.49, Nikon) was used for all measurements.
Picoquant) was used for excitation. Fluorescence emission was detected using an avalanche
as §9
(measured before the back aperture of the objective).

Aβ40/42 = conditions: ref 1b; cited from earlier work
Source text: The design of the ISMs was based on the finding that amyloids are generally composed of a β‐sheet‐turn‐β‐sheet structural motif and that IAPP uses the same two binding regions for both its amyloid self‐ and its cross‐amyloid hetero‐assem ... || Our studies focused on the two ISMs R3‐GI and K3‐L3‐K3‐GI for the following reasons (Figure 1 A and Table S1 in the Supporting Information): 1) R3‐GI was used in solution‐state NMR studies as the intrinsically low solubility of all ISMs with hydrophobic linkers makes them unsuitable for solution‐state NMR spectroscopy. […] Multivalent interactions between an inhibitor molecule and an amyloid fibril have been exploited by Wall and co‐workers,27 who designed an α‐helical peptide with a lysine basic side chain to interact with negatively charged residues exposed on the surface of amyloid structures. These inhibitors are used as imaging reagents and stabilize a fibrillar fold. In contrast, ISMs prevent amyloid form ...

[5] = Saturation transfer difference (STD) NMR; format: physicochemical; conditions: R3-GI 1.25 mM, control peptide 60 μM, 10 mM sodium phosphate buffer, pH 7.4 (1% v/v HFIP, 10% v/v D2O)
Aβ40 [6] = assay: TEM of ISM-induced Aβ40 aggregates; format: biochemical; conditions: equimolar amount of K3-L3-K3-GI
Method: Figure 6 Structural characterization of K3‐L3‐K3‐GI‐induced Aβ40 aggregates. A, B) TEM images of Aβ40 in the absence (A) and presence (B) of an equimolar amount of K3‐L3‐K3‐GI. Scale bar: 200 nm. C) 2D ^13C,^15N MAS solid‐state NMR correlation spectra obtained for K3‐L3‐K3‐GI‐induced Aβ40 aggregates (red). To prepare the sample, a 20 μM solution of monomeric Aβ40 was incubated with a 1.23‐fold molar excess of K3‐L3‐K3‐GI. For reference, the correlation spectrum obtained for Aβ40 fibrils is shown in black. To prepare the Aβ40 fibril sample, monomeric Aβ40 was grown using 5 % seeds, following the protocol described by Lopez and co‐workers.17 (D) Cα–Cβ chemical shift differences for K3‐L3‐K3‐GI‐induced Aβ40 aggregates (top). TALOS+^[19]‐predicted secondary structure propensity (bottom). […]
temperature within 2-5 min following solution preparation. The determined app. […]
as §12, §13

[7] = Solubility of ISMs (qualitative); format: physicochemical
Aβ40 [8] = assay: Effects of ISM on Aβ40 amyloid self-assembly (ThT binding assay); format: biochemical; conditions: Aβ40/ISM 1/1, 50 mM sodium phosphate buffer, pH 7.4, 100 mM NaCl, 1% HFIP, room temperature, 3 assays
Method: as §11
Cross-linking studies were performed as previously described. Briefly, R3-GI was dissolved at 500 μM in aqueous 10 mM sodium phosphate buffer, pH 7.4, and incubated for the indicated time points at room temperature, cross-linked with aqueous glutaraldehyde (25%) (Sigma-Aldrich), precipitated with aqueous trichloroacetic acid (TCA) (10%) and pellets were dissolved in NuPAGE sample buffer and subjected to NuPAGE electrophoresis in 4-12% Bis-Tris gels with MES running buffer. Equal amounts of peptide were loaded in all lanes. Coomassie blue staining was performed following standard protocols.
Dynamic light scattering experiments […]
as §12
(A) Amyloid self-assembly of Aβ40 alone and its mixtures (1:1) with K3-L3-K3-GI or L3-GI (control) determined using the ThT binding assay (means (±SEM), 3 assays). […]
7 days aged solutions from (A) were added to PC12 cells; cell damage was assessed by the MTT reduction assay (means (±SEM), 3 assays (n=3 each)). […]

[9] = 20 μM 15N-labeled Aβ40, molar ratio 1:1

Molecule: CSc1ccc(/C=C2/C(C)=C(CC(=O)O)c3cc(F)ccc32)cc1 [sulindac sulfide]
Effect on Aβ peptide aggregation (Aβ): accelerates Aβ peptide aggregation

Molecule: NCCCS(=O)(=O)O [tramisprosate]
Effect on Aβ42 amyloid oligomer formation (Aβ42): can prevent amyloid oligomer formation

Molecule: ATQRLANFLVH-GGG-NF(N-Me)GA(N-Me)ILS [G3-GI]
Macroscopic particles in solution (DIC) [1]: macroscopic particles are observed
Long-range NOE contacts (loop formation) [2]: only weak long‐range NOEs if any
Aβ40 solubility at 1:1, in words (Aβ40 [3]; [9]): almost unaffected
Aβ40 resonance intensity remaining at tenfold excess of ISM (Aβ40 [3]; 20 μM 15N-labeled Aβ40, molar ratio Aβ/ISM 1:10): ca. 28%
Aβ40 signal at tenfold excess of ISM, in words (Aβ40 [3]): high intensities were observed
Effect on Aβ40 solubility upon titration, in words (Aβ40 [3]): no effects on Aβ40 solubility were observed
Co-localization with Aβ40 (Aβ40 [4]): no co‐localization with Aβ40
Aβ amyloid self-assembly inhibition, in words (Aβ40/42): non‐inhibitor

Second part, led by results:

STD NMR signals [5]: monomeric
STD NMR signals ([5]; listed as monomeric peptide used as a control): no STD signals
Molecule: GVAEPEQDCAVTSGE

Solubility, in words [7]: reasonably soluble
Function of K3-L3-K3-GI as analogue of L3-GI (Figure S1) (Aβ40 [8]): functional analogue
Molecule: KKK-ATQRLANFLVH-LLL-NF(N-Me)GA(N-Me)ILS-KKK [K3-L3-K3-GI]
Aβ40 remaining in solution (Aβ40 [3]; [9]): 9%
Aβ40 chemical shift changes upon ISM addition (Aβ40 [3]; 2D 1H-15N HSQC, molar ratio 1:1): not affected; also recorded: No Aβ40 chemical shift changes were observed
Aβ40 signal at tenfold excess of ISM, in words (Aβ40 [3]): almost empty; also recorded: disappear quantitatively
Effect on Aβ40 solubility upon titration, in words (Aβ40 [3]): precipitated quickly out of solution
Co-localization with Aβ40 (Aβ40 [4]): co‐localize with Aβ40
Morphology of ISM-induced Aβ40 aggregates (Aβ40 [6]): mainly amorphous aggregates

Reference: PMC7154662, “Structural Insight into IAPP‐Derived Amyloid Inhibitors and Their Mechanism of Action” (Angewandte Chemie (International Ed. in English), 2020)
